What was measured:
Assay type in all cases: in vivo
[1] = test system: Amaranthus retoflexus (AMARE); experiment: Pre-emergence herbicidal glasshouse test; details: sprayed after one day cultivation, 250 g/ha, evaluated after 13 days, five-point scale
Description: (§1) Seeds of a variety of test species are sown in standard soil in pots Amaranthus retoflexus (AMARE), Echinochloa crus-galli (ECHCG), Setaria faberi (SETFA)). After cultivation for one day (pre-emergence) or after 8 days cultivation (post-emergence) under controlled conditions in a glasshouse (at 24/16° C., day/night; 14 hours light; 65% humidity), the plants are sprayed with an aqueous spray solution derived from the formulation of the technical active ingredient in acetone/water (50:50) solution containing 0.5% Tween™ 20 (polyoxyethylene sorbitan monolaurate, CAS RN 9005-64-5). Compounds are applied at 250 g/ha unless otherwise stated. The test plants are then grown in a glasshouse under controlled conditions in a glasshouse (at 24/16° C., day/night; 14 hours light; 65% humidity) and watered twice daily. After 13 days for pre- and post-emergence, the test is evaluated for the percentage damage caused to the plant. The biological activities are shown in the following table on a five-point scale (5=81-100%; 4=61-80%; 3=41-60%; 2=21-40%; 1=0-20%).

[2] = test system: Echinochloa crus-galli (ECHCG); experiment: Pre-emergence herbicidal glasshouse test; details: sprayed after one day cultivation, 250 g/ha, evaluated after 13 days, five-point scale
Description: as §1

Setaria faberi (SETFA) [3] = experiment: Pre-emergence herbicidal glasshouse test; details: sprayed after one day cultivation, 250 g/ha, evaluated after 13 days, five-point scale
Description: as §1

[4] = test system: Amaranthus retoflexus (AMARE); experiment: Post-emergence herbicidal glasshouse test; details: sprayed after 8 days cultivation, 250 g/ha, evaluated after 13 days, five-point scale
Description: as §1

[5] = test system: Echinochloa crus-galli (ECHCG); experiment: Post-emergence herbicidal glasshouse test; details: sprayed after 8 days cultivation, 250 g/ha, evaluated after 13 days, five-point scale
Description: as §1

Setaria faberi (SETFA) [6] = experiment: Post-emergence herbicidal glasshouse test; details: sprayed after 8 days cultivation, 250 g/ha, evaluated after 13 days, five-point scale
Description: as §1

| Structure (SMILES) | percentage damage caused to the plant, AMARE [1] | percentage damage caused to the plant, ECHCG [2] | percentage damage caused to the plant, SETFA (Setaria faberi (SETFA) [3]) | percentage damage caused to the plant, AMARE [4] | percentage damage caused to the plant, ECHCG [5] | percentage damage caused to the plant, SETFA (Setaria faberi (SETFA) [6]) |
| --- | --- | --- | --- | --- | --- | --- |
| Fc1cccc(Oc2nc(Br)cs2)c1-c1cc(C(F)F)no1 [Compound 1.007] | 5 (5=81-100%) | 3 (3=41-60%) | 5 (5=81-100%) | 5 (5=81-100%) | 4 (4=61-80%) | 5 (5=81-100%) |
| FC(F)c1cc(-c2ccccc2Oc2ncc(Cl)s2)on1 [Compound 1.026] | 4 (4=61-80%) | 4 (4=61-80%) | 4 (4=61-80%) | 4 (4=61-80%) | 4 (4=61-80%) | 4 (4=61-80%) |
| N#Cc1cccc(Oc2ncc(Cl)s2)c1-c1cc(C(F)F)no1 [Compound 1.012] | 2 (2=21-40%) | 4 (4=61-80%) | 5 (5=81-100%) | 5 (5=81-100%) | 3 (3=41-60%) | 4 (4=61-80%) |
| Fc1cccc(Oc2ncc(Cl)s2)c1-c1cc(C(F)F)no1 [Compound 1.006] | 5 (5=81-100%) | 5 (5=81-100%) | 5 (5=81-100%) | 5 (5=81-100%) | 4 (4=61-80%) | 5 (5=81-100%) |
| N#Cc1cccc(Oc2ncc(Br)s2)c1-c1cc(C(F)F)no1 [Compound 1.013] | 2 (2=21-40%) | 4 (4=61-80%) | 4 (4=61-80%) | 5 (5=81-100%) | 2 (2=21-40%) | 3 (3=41-60%) |
| FC(F)c1cc(-c2c(Br)cccc2Oc2nc(C(F)(F)F)cs2)on1 [Compound 1.034] | 4 (4=61-80%) | 3 (3=41-60%) | 5 (5=81-100%) | 4 (4=61-80%) | 3 (3=41-60%) | 4 (4=61-80%) |
| FC(F)c1cc(-c2ccccc2Oc2ncc(C(F)F)s2)on1 [Compound 1.021] | 3 (3=41-60%) | 4 (4=61-80%) | 4 (4=61-80%) | 4 (4=61-80%) | 1 (1=0-20%) | 3 (3=41-60%) |
| FC(F)c1cc(-c2c(Cl)cccc2Oc2ncc(Cl)s2)on1 [Compound 1.022] | 5 (5=81-100%) | 5 (5=81-100%) | 5 (5=81-100%) | 5 (5=81-100%) | 5 (5=81-100%) | 5 (5=81-100%) |
| Fc1cccc(Oc2nc(C(F)(F)F)cs2)c1-c1cc(C(F)F)no1 [Compound 1.033] | 5 (5=81-100%) | 4 (4=61-80%) | 5 (5=81-100%) | 4 (4=61-80%) | 4 (4=61-80%) | 4 (4=61-80%) |
| Fc1cccc(Oc2nc(C(F)F)cs2)c1-c1cc(C(F)F)no1 [Compound 1.009] | 4 (4=61-80%) | 3 (3=41-60%) | 5 (5=81-100%) | 4 (4=61-80%) | 2 (2=21-40%) | 2 (2=21-40%) |
| Fc1cccc(Oc2nccs2)c1-c1cc(C(F)F)no1 [Compound 1.003] | 5 (5=81-100%) | 2 (2=21-40%) | 2 (2=21-40%) | 2 (2=21-40%) | 1 (1=0-20%) | 2 (2=21-40%) |

Reference: patent US12662476B2, “Herbicidal thiazole compounds” (SYNGENTA CROP PROTECTION AG, priority 2019, dated 2026)
